Test results: US7825126B2 (The United States of America as represented by the …, priority 2004, dated 2010)
“And” between values parts separate entries of the source, which are not always exact repeats. Equal values may be shown once. Read-outs that look alike come from different tables or passages of the source.

Key:
human A1 receptors = target: T1, human A1 receptors (Homo sapiens, UniProt P30542); assay: Binding at human A1 adenosine receptor ([3H]R-PIA, CHO cell membranes); conditions: mean ± s.e.m., n = 3-5, read-out: Ki(hA1AR)
T1 construct: expressed in transfected cells
T1 sequence (P30542 1-326): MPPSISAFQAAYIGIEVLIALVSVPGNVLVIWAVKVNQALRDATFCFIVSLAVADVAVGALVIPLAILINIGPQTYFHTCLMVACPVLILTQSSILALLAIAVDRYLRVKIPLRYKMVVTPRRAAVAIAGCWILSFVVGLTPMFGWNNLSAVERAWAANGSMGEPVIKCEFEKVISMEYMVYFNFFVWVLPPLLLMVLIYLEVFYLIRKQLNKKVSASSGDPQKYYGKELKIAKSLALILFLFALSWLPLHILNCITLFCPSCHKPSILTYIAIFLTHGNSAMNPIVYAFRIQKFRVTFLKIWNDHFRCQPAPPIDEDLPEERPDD
Procedure: (§1) Binding assays at the A1 and A2A receptors. […] Reaction was terminated by filtration with GF/B filters.
(§2) Statistical analysis Binding and functional parameters were calculated using Prism 5.0 software (GraphPAD, San Diego, Calif., USA). IC50 values obtained from competition curves were converted to Ki values using the Cheng-Prusoff equation.

human A2A receptors = target: T2, human A2A receptors (Homo sapiens, UniProt P29274); assay: Binding at human A2A adenosine receptor ([3H]CGS21680, HEK-293 cell membranes); conditions: [3H]CGS 21680; mean ± s.e.m., n = 3-5; read-out: Ki(hA2AAR)
T2 construct: expressed in transfected cells
T2 sequence (P29274 whole entry): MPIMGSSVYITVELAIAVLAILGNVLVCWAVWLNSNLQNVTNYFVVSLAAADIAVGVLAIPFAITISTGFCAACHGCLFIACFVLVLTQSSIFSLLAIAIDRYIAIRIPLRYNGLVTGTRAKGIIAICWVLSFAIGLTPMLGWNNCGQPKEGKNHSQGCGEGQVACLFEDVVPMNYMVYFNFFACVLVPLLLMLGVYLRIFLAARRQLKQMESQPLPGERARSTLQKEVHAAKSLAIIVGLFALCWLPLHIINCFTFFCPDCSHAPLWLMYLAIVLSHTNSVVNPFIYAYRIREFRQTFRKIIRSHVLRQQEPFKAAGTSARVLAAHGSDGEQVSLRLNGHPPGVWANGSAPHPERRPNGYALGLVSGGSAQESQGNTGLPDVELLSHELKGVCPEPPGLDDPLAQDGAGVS
Procedure: as §1, §2

[1] = target: T3, human A2B adenosine receptor (hA2BAR) (Homo sapiens, UniProt P29275); assay: Activation of human A2B adenosine receptor at 10 μM; assay type: cell-based; conditions: CHO cells
T3 sequence (P29275 1-332): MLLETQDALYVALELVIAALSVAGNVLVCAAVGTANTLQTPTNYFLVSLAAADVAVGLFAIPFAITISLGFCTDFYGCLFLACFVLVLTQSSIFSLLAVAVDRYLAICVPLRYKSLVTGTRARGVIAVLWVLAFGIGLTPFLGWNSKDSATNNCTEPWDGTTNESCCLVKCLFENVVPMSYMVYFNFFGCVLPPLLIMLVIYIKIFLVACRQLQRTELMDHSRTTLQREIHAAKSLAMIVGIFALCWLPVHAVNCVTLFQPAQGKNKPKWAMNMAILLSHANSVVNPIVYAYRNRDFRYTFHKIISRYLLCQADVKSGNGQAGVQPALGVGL

[2] = target: T4, rat A3 adenosine receptor (Rattus norvegicus, UniProt P28647); assay: Binding at rat A3 adenosine receptor ([125I]I-AB-MECA, CHO cell membranes); conditions: rat A3 AR in CHO cells; unit nM printed in b194 only; read-out: Ki(rA3AR)
T4 construct: expressed in transfected cells; host or cells: CHO cells
T4 sequence (P28647 1-320): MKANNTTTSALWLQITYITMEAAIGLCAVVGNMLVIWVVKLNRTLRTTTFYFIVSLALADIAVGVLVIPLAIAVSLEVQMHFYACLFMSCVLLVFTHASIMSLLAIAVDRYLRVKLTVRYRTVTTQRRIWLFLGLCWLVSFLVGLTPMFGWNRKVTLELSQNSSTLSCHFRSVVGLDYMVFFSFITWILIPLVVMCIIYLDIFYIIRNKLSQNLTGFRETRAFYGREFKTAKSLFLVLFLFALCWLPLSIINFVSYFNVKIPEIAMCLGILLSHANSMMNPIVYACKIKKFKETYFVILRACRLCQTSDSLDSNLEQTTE
Procedure: (§3) Striatal and forebrain tissues from Wistar rats were homogenized in ice-cold 50 mM Tris-HCl buffer, pH 7.4, using an electric homogenizer. The homogenate was centrifuged at 20,000 g for 10 min at 4° C., and the pellet was washed in fresh buffer. The final pellet was stored at −80° C. until the binding experiments. The protein concentration was measured using the Bradford assay. […] The mixtures were incubated at 37° C. for 60 min. […] Filters were washed three times with 9 ml ice-cold buffer. Radioactivity was determined in a Beckman 5500B γ-counter. Statistical analysis Binding and functional parameters were calculated using Prism 5.0 software (GraphPAD, San Diego, Calif., USA). IC50 values obtained from competition curves were converted to Ki values using the Cheng-Prusoff equation.

[3] = target: T5, human A3 adenosine receptor (Homo sapiens, UniProt P0DMS8)
T5 sequence (P0DMS8 1-318): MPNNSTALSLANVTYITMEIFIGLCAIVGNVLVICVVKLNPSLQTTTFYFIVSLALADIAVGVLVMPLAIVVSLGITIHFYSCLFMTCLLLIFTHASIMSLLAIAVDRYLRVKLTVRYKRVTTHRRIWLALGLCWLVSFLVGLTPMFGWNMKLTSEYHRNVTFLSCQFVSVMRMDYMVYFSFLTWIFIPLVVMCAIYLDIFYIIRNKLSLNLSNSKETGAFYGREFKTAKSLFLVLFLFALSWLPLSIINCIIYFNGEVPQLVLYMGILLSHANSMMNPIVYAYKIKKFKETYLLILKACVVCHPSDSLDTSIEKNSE
Procedure: (§4) The cyclic AMP accumulation assay was performed as follows. Intracellular cyclic AMP levels were measured with a competitive protein binding method. […] After centrifugation and resuspension in medium, cells were plated in 24-well plates in 1.0 ml medium. […] The reaction was terminated by removing the supernatant, and cells were lysed upon the addition of 200 μL of 0.1 M ice-cold HCl. The cell lysate was resuspended and stored at −20° C. For determination of cyclic AMP production, protein kinase A (PKA) was incubated with [^3H]cyclic AMP (2 nM) in K2HPO4/EDTA buffer (K2HPO4, 150 mM; EDTA, 10 mM), 20 μL of the cell lysate, and 30 μL 0.1 M HCl or 50 μL of cyclic AMP solution (0-16 pmol/200 μL for standard curve). Bound radioactivity was separated by rapid filtration through Whatman GF/C filters and washed once with cold buffer. Bound radioactivity was measured by liquid scintillation spectrometry.
(§5) Forskolin (10 μM) was used to stimulate cyclic AMP levels.

[4] = target: T5, human A3 adenosine receptor; assay: Binding at human A3 adenosine receptor ([125I]I-AB-MECA, CHO cell membranes); parameters: expressed in transfected cells; host or cells: CHO cells
Procedure: as §3

[5] = target: T5, human A3 adenosine receptor; assay: Cyclic AMP accumulation assay (inhibition of forskolin-stimulated cAMP), CHO cells expressing human A3 adenosine receptor
Procedure: as §4, §5

intact mouse heart = assay: Anti-ischemic cardioprotection, Langendorff-perfused mouse heart model of global ischemia/reperfusion; assay type: in vivo; conditions: 30 nM
Procedure: Anti-ischemic Cardioprotection. Langendorff perfusion of the mouse hearts was carried out. Mice were anesthetized with 60 mg/kg sodium pentobarbital (i.p.), and heart excised in ice-cold perfusion buffer. The aorta was cannulated and retrograde perfused in the Langendorff mode at a pressure of 55 mmHg. To assess isovolumic function, fluid-filled polyvinyl plastic film balloons were inserted into the left ventricle via the left atrium. Balloons were connected to a fluid-filled pressure transducer to measure the left ventricular developed pressure (LVDP), +dP/dt, −dP/dt, and heart rate. To induce normothermic global ischemia and reperfusion, retrograde perfusion of the aorta was stopped, and hearts were immersed in the same perfusion buffer in a water-jacketed bath maintained at 37° C. After 35-min ischemia and 30-min reperfusion, the recovery of left ventricular function was determined by quantifying the LVDP, +dP/dt, and −dP/dt. To quantify the infarct, the hearts were retrograde perfused with 1% triphenyltetrazolium chloride (TTC) in perfusion buffer for 10 minutes after 120-min reperfusion, which allowed washout of pyridine nucleotides from necrotic cells as required for TTC staining. The heart was then immersed in the same TTC buffer for another 10 minutes. The hearts were frozen, cut into six or seven 1 mm slices from apex to base, and scanned for measurement of infarct size by computer morphometry (Image-Pro Plus, version 5.0, Media Cybernetics, Inc, Silver Spring, Md.). The infarct size was quantified as the area of necrosis normalized to the total ventricular area.

rat A1 receptors = rat A1 receptors (Rattus norvegicus, UniProt P25099); assay: biochemical
Chain of rat A1 receptors (P25099 whole entry): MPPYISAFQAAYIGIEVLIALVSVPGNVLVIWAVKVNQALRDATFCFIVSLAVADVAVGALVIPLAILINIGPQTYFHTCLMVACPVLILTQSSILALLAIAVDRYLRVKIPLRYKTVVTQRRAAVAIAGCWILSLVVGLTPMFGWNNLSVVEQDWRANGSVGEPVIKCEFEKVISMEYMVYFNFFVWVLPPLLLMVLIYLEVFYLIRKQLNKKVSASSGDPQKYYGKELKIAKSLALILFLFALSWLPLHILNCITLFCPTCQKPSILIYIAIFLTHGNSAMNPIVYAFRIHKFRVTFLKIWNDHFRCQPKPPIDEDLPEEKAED
Procedure: Striatal and forebrain tissues from Wistar rats were homogenized in ice-cold 50 mM Tris-HCl buffer, pH 7.4, using an electric homogenizer. The homogenate was centrifuged at 20,000 g for 10 min at 4° C., and the pellet was washed in fresh buffer. The final pellet was stored at −80° C. until the binding experiments. The protein concentration was measured using the Bradford assay.
as §1, §2

[6] = target: T6, human A1 adenosine receptor (Homo sapiens, UniProt P30542); assay: Cyclic AMP accumulation assay (inhibition of forskolin-stimulated cAMP), CHO cells expressing human A1 adenosine receptor
T6 sequence (P30542 1-326): T1 sequence (P30542 1-326)
Procedure: as §4, §5

[7] = n = 6, 35 global ischemia followed by reperfusion

## CNC(=O)[C@@]12C[C@@H]1[C@@H](n1cnc3c(NCC(c4ccccc4)c4ccccc4)nc(Cl)nc31)[C@H](O)[C@@H]2O [Compound 34]
Human A1 receptors
  Ki: 1300 ± 100 nM
Human A2A receptors
  Ki: 1600 ± 100 nM
[1]
  % Activation (hA2BAR) at 10 μM: 46%
[2]
  Ki: 10 ± 4 nM
[3]
  % Activation (hA3AR) at 10 μM: 107 ± 9%
[4]; 2-chloro, 5′-N-methylamide substituted compounds
  affinity at the human A3 adenosine receptor (in words): subnanomolar
[4]; [125I]I-AB-MECA, mean ± s.e.m., n = 3-5, read-out: Ki(hA3AR)
  Ki: 0.69 ± 0.02 nM
[4]; ratio of Ki hA1 / hA3
  Selectivity for the human A3 adenosine receptor in comparison to the A1 adenosine receptor: 1900 fold
[5]; concentration of 10 μM
  agonist efficacy at the A3 adenosine receptor (inhibition of forskolin-stimulated adenylate cyclase): agonist

## CNC(=O)C12CC1C(n1cnc3c(NC4CCCC4)nc(Cl)nc31)C(O)C2O (stereo not drawn) [Compound 104, (1′S,2′R,3′S,4′S,5′S) -4′-[6-(cyclopentylamino)-2-chloro-purin-9-yl]-2′,3′-dihydroxy-bicyclo[3.1.0]hexane-1′-carboxylic acid methyl amide]
Intact mouse heart
  recovery of left ventricular developed pressure, +dP/dt, −dP/dt and heart rate (in words): improved significantly
Intact mouse heart; [7]
  Recovery of +dP/dt: 21.1 ± 4.9 % of baseline prior to ischemia/reperfusion
  Recovery of HR: 93.8 ± 19.3 % of baseline prior to ischemia/reperfusion
  Recovery of LVDP: 26.0 ± 4.8 % of baseline prior to ischemia/reperfusion
  Recovery of −dP/dt: 24.6 ± 7 % of baseline prior to ischemia/reperfusion
Intact mouse heart; n = 6, area of necrosis normalized to total ventricular area
  % necrosis (infarct size, TTC staining): 15±7% and 15.0 ± 6.9%
Intact mouse heart; perfused until induction of ischemia
  anti-ischemic cardioprotective effect (in words): potent anti-ischemic cardioprotective effect
Intact mouse heart; computer morphometry after TTC staining
  infarct size (in words): significantly reduced
Rat A1 receptors
  Ki: 17.4 nM
[5]
  EC50: 2.8 nM
[5]; 10 μM, relative to 10 μM Cl-IB-MECA
  % Activation (hA3AR) at 10 μM: 101 ± 10%
[5]; intact transfected CHO cells
  agonist character at human A3 (concentration response curves, cAMP): full agonist
[6]
  EC50: 8.2 nM
[6]; intact transfected CHO cells
  agonist character at human A1 (concentration response curves, cAMP): full agonist
